Reference: patent publication US8377458B2, “Cooling sensation agent composition, sensory stimulation agent composition and use of the same” (Takasago International Corporation, priority 2009, dated 2013)

Tests used:
[1] = tested on: inside of upper parts of arms; experiment: Test of a cooling towel (direct spraying), sensory evaluation; assay type: in vivo, human (panelists)
Method: Those which were air-dried for 10 minutes, 3 hours or 24 hours after spraying were sensory evaluated. The sensory evaluation was carried out by touching the cooling towel with the inside of upper parts of arms, and cooling action at that time was determined. Meanwhile, the evaluation was carried out by five panelists having 5 years or longer experience. […] The results are shown by the total score of the ranking numbers. In other words, smaller total score means to show a better cooling sensation effect.

[2] = tested on: inside of upper parts of arms; experiment: Test of a cooling towel (washing processed), sensory evaluation; assay type: in vivo, human (panelists); conditions: for total score of the ranking numbers (cooling effect on treated hand towel after washing): 1% in washing detergent
Method: The hand towel thus prepared and those after further air-dried for 24 hours or 48 hours were brought into contact with the inside of upper parts of arms, and the cooling action thereof was determined organoleptically. Meanwhile, the evaluation was carried out by five panelists having 5 years or longer experience. The above compounds, mixtures and menthoxypropanediol were divided into three groups of A to C (group A; […] The results are shown by the total score of the ranking numbers. […] In other words, smaller total score means to show a better cooling sensation effect.

[3] = Group C, direct spraying, after 10 min air drying, smaller = better
[4] = Group C, direct spraying, after 3 hr air drying, smaller = better
[5] = Group C, direct spraying, after 24 hr air drying, smaller = better
[6] = Group C, after 6 hr, smaller = better
[7] = Group C, after 24 hr, smaller = better
[8] = Group C, after 48 hr, smaller = better
[9] = Group A (5 samples ranked by 5 panelists, smaller = better), direct spraying 1 g of 1% ethanol solution, after 10 min air drying
[10] = Group A, direct spraying, after 3 hr air drying, smaller = better
[11] = Group A, direct spraying, after 24 hr air drying, smaller = better
[12] = Group A (4 samples ranked by 5 panelists, smaller = better), after 6 hr air drying
[13] = Group A, after 24 hr, smaller = better
[14] = Group A, after 48 hr, smaller = better
[15] = Group B, direct spraying, after 10 min air drying, smaller = better
[16] = Group B, direct spraying, after 3 hr air drying, smaller = better
[17] = Group B, direct spraying, after 24 hr air drying, smaller = better
[18] = Group B, after 6 hr, smaller = better
[19] = Group B, after 24 hr, smaller = better
[20] = Group B, after 48 hr, smaller = better

Compound	total score of the ranking numbers (cooling effect on treated hand towel) [1, 3]	total score of the ranking numbers (cooling effect on treated hand towel) [1, 4]	total score of the ranking numbers (cooling effect on treated hand towel) [1, 5]	total score of the ranking numbers (cooling effect on treated hand towel after washing) [2, 6]	total score of the ranking numbers (cooling effect on treated hand towel after washing) [2, 7]	total score of the ranking numbers (cooling effect on treated hand towel after washing) [2, 8]	total score of the ranking numbers (cooling effect on treated hand towel) [1, 9]	total score of the ranking numbers (cooling effect on treated hand towel) [1, 10]	total score of the ranking numbers (cooling effect on treated hand towel) [1, 11]	total score of the ranking numbers (cooling effect on treated hand towel after washing) [2, 12]	total score of the ranking numbers (cooling effect on treated hand towel after washing) [2, 13]	total score of the ranking numbers (cooling effect on treated hand towel after washing) [2, 14]	total score of the ranking numbers (cooling effect on treated hand towel) [1, 15]	total score of the ranking numbers (cooling effect on treated hand towel) [1, 16]	total score of the ranking numbers (cooling effect on treated hand towel) [1, 17]	total score of the ranking numbers (cooling effect on treated hand towel after washing) [2, 18]	total score of the ranking numbers (cooling effect on treated hand towel after washing) [2, 19]	total score of the ranking numbers (cooling effect on treated hand towel after washing) [2, 20]	other results
CC1CCC(C(C)C)C(OCCOC(=O)CCCC(=O)OC2CC(C)CCC2C(C)C)C1 (stereo not drawn) [Compound 8, l-menthyl-(l-menthoxyethyl)-glutaric ester]	13	12	11	13	13	13	–	–	–	–	–	–	–	–	–	–	–	–	–
CC(C)=CCCC(C)CCOC(=O)CCC(=O)OC1CC(C)CCC1C(C)C (stereo not drawn) [Compound 4, l-menthyl-(l-citronellyl)succinic ester]	16	18	16	10	12	11	–	–	–	–	–	–	–	–	–	–	–	–	–
CC1CCC(C(C)C)C(OCCOC(=O)CCC(=O)OC2CC(C)CCC2C(C)C)C1 (stereo not drawn) [Compound 1, l-menthyl-(l-menthoxyethyl)succinic ester]	–	–	–	–	–	–	18	12	11	11	10	13	–	–	–	–	–	–	–
CC(C)[C@@H]1CC[C@@H](C)C[C@H]1OCC(O)COC(=O)CCC(=O)O[C@@H]1C[C@H](C)CC[C@H]1C(C)C (stereo partly drawn) [Compound 2, l-menthyl-3-(l-menthoxy)-2-(hydroxypropyl)succinic ester]	–	–	–	–	–	–	18	13	13	13	11	12	–	–	–	–	–	–	–
CC(C)[C@@H]1CC[C@@H](C)C[C@H]1O [Compound 1-Menthol, l-menthol, reference compound]	–	–	–	–	–	–	6	24	25	–	–	–	7	24	25	–	–	–	cooling action (in words) ([1]; direct spraying, after air drying for 10 minutes): strongest cooling action; lasting / consistency of cooling action (in words) ([1]; direct spraying, over 10 min to 24 hr): less consistent
CC1CCC(C(C)C)C(OC(=O)CCCC(=O)OC2CC(C)CCC2C(C)C)C1 (stereo not drawn) [Dimenthylglutaric acid, reference compound]	22	21	23	–	–	–	22	20	21	–	–	–	22	20	19	–	–	–	–
C=C(C)C1CCC(C)CC1OC(=O)CCC(=O)OC1CC(C)CCC1C(C)C (stereo not drawn) [Compound 3, l-menthyl-(l-isopulegyl)succinic ester]	–	–	–	–	–	–	–	–	–	–	–	–	16	10	10	11	10	10	–
CC1CCC(C(C)C)C(OCC(O)CO)C1 (stereo not drawn) [Menthoxypropanediol, l-menthoxypropanediol, reference compound]	–	–	–	19	20	19	–	–	–	19	20	19	–	–	–	18	19	20	cooling action (in words) ([2]; after the washing treatment and 6 hours of air drying): almost no cooling action was observed
CC1CCC(C(C)C)C(OC(=O)CCCC(=O)OCCc2ccccc2)C1 (stereo not drawn) [Compound 6, l-menthyl-(phenylethyl)glutaric ester]	–	–	–	–	–	–	–	–	–	–	–	–	17	14	14	13	14	14	–
CC(C)=CCCC(C)CCOC(=O)CCCC(=O)OC1CC(C)CCC1C(C)C (stereo not drawn) [Compound 7, l-menthyl-(l-citronellyl)glutaric ester]	15	17	18	–	–	–	–	–	–	–	–	–	–	–	–	–	–	–	–
